Reference: patent publication US10517870B2, “Aryl substituted bicycle heteroaryl compounds” (Bristol-Myers Squibb Company, priority 2015, dated 2019)

How the values were obtained:
Caski (HPV16+) cells = assay: Cell proliferation/viability assay, Caski cells; assay type: cell-based; conditions: Homo sapiens, Ca-Ski, 96 h, 4 days
Procedure: (§1) Caski (catalog number CRL-1550), SiHa (catalog number HTB-35), C33A (catalog number HTB-31), Saos-2 (ATCC HTB-85), and Hela (catalog number CCL-2) cells were obtained from the American Type Culture Collection (ATCC). The human cervical carcinoma cell lines Caski. SiHa, Hela and C33A, and the human osteosarcoma cell line Saos-2, and the human keratinocyte cell line HaCaT were cultured in Dulbecco's Modified Eagle Medium (DMEM, Invitrogen catalog number 11965-092) supplemented with 10% fetal bovine serum. The colorectal carcinoma cell line HCT-116 was cultured in Roswell Park Memorial Institute-1640 Medium (Invitrogen catalog number 11875-093) supplemented with 10% FBS. All cells were incubated at 37° C. in a humidified atmosphere with 5% CO2 in air. To establish the SCHPV-18 cell line, one million primary neonatal human foreskin keratinocytes (Invitrogen, catalog no. C-001-5C), cultured in KBM Gold-keratinocvte cell basal medium (Lonza, catalog no. 192060), were electroporated with 5 μg HPV-18 plasmid DNA (ATCC catalog no. 45152D) using the Amaxa Nucleofector II on setting T-007. Cells were co-transfected with 2 μg plasmid pZSGreen1-N1 (Clontech catalog no. 632448) encoding G418 resistance, and cells were selected for four days in 100 μg/ml G418, after which selection was removed. Cells were maintained in culture six months prior to compound testing. Integration of the HPV 18 genome was confirmed by Southern blot. Control cells transfected in parallel with pZSGreen1-N1 alone became senescent four days after selection and the culture could not be expanded. SCHPV-18 cells were maintained in E medium (Fehrmann F, Laimins L A. Human papillomavirus type 31 life cycle: methods for study using tissue culture models. Methods Mol Biol 2005; 292:317-330).
(§2) For proliferation assays, cells were plated in white polystyrene 96-well plates (Costar catalog number 3917) for CellTiter Glo viability assays or 96-well special optics plates (Costar cat #3614) for CellTiter Blue viability assays. Cells were plated in the appropriate growth medium without antibiotics. Two hours after cell plating, a 200× compound stock diluted in DMSO was added to a final concentration of 0.5%. Plates were incubated at 37° C., for 4 days and then cell viability was assessed using either CellTiter Blue (Promega catalog number G8081) or CellTiter Glo (Promega catalog number G7572) according to the manufacturer's instructions. For the CellTiter Blue viability assay, data was collected using the SpectraMax Gemini EM (Molecular Devices) with an excitation wavelength of 530 nm and emission wavelength of 590 nm. For the CellTiter Glo viability assay, data was collected using the Envision Mulitlabel Reader (Perkin Elmer catalog number 2104-0010). To calculate IC50 and EC50 values, percent inhibition curves were fit using a four-parameter logistic formula [y=A+[…]], where A and B denote minimal and maximal % inhibition, respectively, C is the IC50 value, D is the Hill slope, and x represents compound concentration.
(§3) Table C, below, sets out the results obtained employing various compounds of the invention tested for their effects on proliferation of such cells. Caski or SiHa cells, transformed by HPV 16, Hela cells, transformed by HPV 18, or HPV-negative control cell lines (Saos-2 or C33a) were treated with various compounds. […] Unlike the HPV-negative Saos-2 or C33a cell lines, the HPV-transformed cell lines rely on the presence of HPV for their continued proliferation. Therefore, a comparison of IC50 values from HPV-transformed cell lines with IC50 values obtained from HPV-negative cell lines can be used to test for compound selectivity.

HeLa (HPV18+) cells = assay: Cell proliferation/viability assay, HeLa cells; assay type: cell-based; conditions: Homo sapiens, 96 h, 4 days
Procedure: as §1, §2, §3

SiHa (HPV16+) cells = assay: Cell proliferation/viability assay, SiHa cells; assay type: cell-based; conditions: Homo sapiens, 96 h, 4 days
Procedure: as §1, §2, §3

Saos-2 (HPV−) cells = assay: Cell proliferation/viability assay, Saos-2 cells; assay type: cell-based; conditions: Homo sapiens, 96 h; Saos-2, HPV-negative, 4 days; read-out: Saos-2 (HPV−) Proliferation IC50
Procedure: as §1, §2, §3

C33A (HPV−) cells = assay: Cell proliferation/viability assay, C33A cells; assay type: cell-based; conditions: Homo sapiens, C-33-A, 96 h; C33A, HPV-negative, 4 days; read-out: C33A (HPV−) Proliferation IC50
Procedure: as §1, §2, §3

Caspase-3/-7 activity = assay: Apoptosis assay (Caspase-Glo 3/7) in HPV-transformed and HPV-negative cell lines; assay type: cell-based, human
Procedure: Apoptosis is a cellular process in which a cascade of events, controlled by proteolytic cleavage events, results in chromatin condensation, blebbing of the cell membrane, fragmentation of cellular DNA, and cell death. Caspases 3 and 7 are enzymes which control initiation of the later stages of apoptosis. Caspase-3/-7 activity can therefore be used as a measure of induction of apoptosis in response to compound treatment. For caspase-3/7 activity assays, cells were plated in 96-well plates (Costar catalog no. 3917) in DMEM with 10% FBS two hours before compound treatment. Cells were treated with compounds in a final concentration of 0.5% DMSO, then the Caspase-Glo 3/7 Assay (Promega catalog no. G8090) was performed according to manufacturer's instructions. […] Luminescence was measured using the EnVision Multilabel Reader (Perkin Elmer catalog no. 2104-0010) with aperture diameter 6 mm, height 4.2 mm, and measurement time of 0.1 second per well.
Example 15 was tested in an apoptosis assay using three HPV-transformed cell lines (Caski, SiHa, and SCHPV-18) and four HPV-negative cell lines (HCT-116, HaCat, C33a, and Saos-2). The cell lines were treated with a range of concentrations of the compound and induction of Caspase-3/-7 activity was measured relative to vehicle (DMSO)-treated controls.

[1] = target: T1, protease-activated receptor type 4 (PAR4) (Homo sapiens, UniProt Q96RI0); conditions: Lee et al., J. Med. Chem. 2001; cited from earlier work
T1 sequence (Q96RI0 18-385): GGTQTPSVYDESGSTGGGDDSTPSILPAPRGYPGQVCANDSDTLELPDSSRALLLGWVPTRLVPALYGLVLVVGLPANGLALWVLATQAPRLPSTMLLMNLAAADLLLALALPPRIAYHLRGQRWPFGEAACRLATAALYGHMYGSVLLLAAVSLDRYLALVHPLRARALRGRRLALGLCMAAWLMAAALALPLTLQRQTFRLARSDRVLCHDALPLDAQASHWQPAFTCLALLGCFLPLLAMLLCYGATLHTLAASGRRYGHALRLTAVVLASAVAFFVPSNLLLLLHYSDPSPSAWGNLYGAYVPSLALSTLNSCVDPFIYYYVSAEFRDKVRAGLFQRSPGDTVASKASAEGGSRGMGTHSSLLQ

[2] = ACS patients, TRACER phase III trial; cited from earlier work

Q: With `COc1ccc(-c2cc(C(F)(F)F)cc3nc(OC(F)F)cnc23)cc1Br` [Example 15, 5-(3-bromo-4-methoxyphenyl)-2-(difluoromethoxy)-7-(trifluoromethyl)quinoxaline] as the molecule, how does the IC50 (Caski (HPV16+) cells) read?
A: 16.5 µM

Q: And the IC50 (HeLa (HPV18+) cells)?
A: 18.2 µM

Q: What about the IC50 (SiHa (HPV16+) cells) of the same molecule?
A: 12.9 µM

Q: And the IC50 (Saos-2 (HPV−) cells)?
A: > 99.5 µM

Q: And the IC50 (C33A (HPV−) cells)?
A: > 99.5 µM

Q: What about the “increase in Caspase-3/-7 activity” value (Caspase-3/-7 activity; HPV-positive cell lines (Caski, SiHa, SCHPV-18), relative to vehicle (DMSO)-treated controls) of the same molecule?
A: greater than 10 fold

Q: What about the induction of apoptosis (Caspase-3/-7 activity; HPV-positive versus HPV-negative cell lines (HCT-116, HaCat, C33a, Saos-2)) of the same molecule?
A: selectively induced apoptosis in HPV-positive cell lines

Q: Which “inhibition of PAR4-dependent platelet activation” value [1] does the source give for `CCOC(=O)c1ccc(-c2nn(Cc3ccccc3)c3ccccc23)cc1` [YD-3] here?
A: selective and potent inhibitor

Q: With `CCOC(=O)N[C@@H]1CC[C@@H]2[C@@H](C1)C[C@H]1C(=O)O[C@H](C)[C@H]1[C@H]2/C=C/c1ccc(-c2cccc(F)c2)cn1` [vorapaxar] as the molecule, how does the cardiovascular events [2] read?
A: did not significantly reduce cardiovascular events

Q: And the “risk of major bleeding” value [2]?
A: significantly increased the risk of major bleeding
